Assays:
Assay in all cases: scanMAX Kinase assay panel
Format in all cases: binding
Conditions in all cases: read-out: % control
[1] = biological target: ABL1(F317L)-nonphosphorylated (Homo sapiens (Human), UniProt P00519, F317L)
Outline: (§1)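 scanMAX kinase panel screen. Normalisation: (cpd − pos ctrl)/(neg ctrl − pos ctrl) × 100. Neg ctrl is DMSO (100%); pos ctrl gives 0%.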

[2] = biological target: AURKB (Homo sapiens (Human), UniProt Q96GD4)
Outline: as §1

[3] = biological target: CAMK1 (Homo sapiens (Human), UniProt Q14012)
Outline: as §1

[4] = biological target: CAMK2A (Homo sapiens (Human), UniProt Q9UQM7)
Outline: as §1

[5] = biological target: CSK (Homo sapiens (Human), UniProt P41240)
Outline: as §1

[6] = biological target: CSNK1A1 (Homo sapiens (Human), UniProt P48729)
Sequence of CSNK1A1 (P48729 whole entry): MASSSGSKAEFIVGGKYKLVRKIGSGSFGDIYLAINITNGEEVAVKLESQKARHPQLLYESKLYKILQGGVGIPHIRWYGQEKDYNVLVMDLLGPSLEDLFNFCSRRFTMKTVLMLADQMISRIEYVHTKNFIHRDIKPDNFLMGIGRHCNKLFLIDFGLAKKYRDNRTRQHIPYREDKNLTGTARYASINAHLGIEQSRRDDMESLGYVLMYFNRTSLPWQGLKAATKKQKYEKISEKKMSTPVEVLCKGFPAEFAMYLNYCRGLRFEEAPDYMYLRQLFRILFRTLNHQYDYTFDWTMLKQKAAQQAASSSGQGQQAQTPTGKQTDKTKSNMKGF
Outline: as §1

[7] = biological target: DAPK3 (Homo sapiens (Human), UniProt O43293)
Outline: as §1

[8] = biological target: DMPK (Homo sapiens (Human), UniProt Q09013)
Outline: as §1

[9] = biological target: EPHB1 (Homo sapiens (Human), UniProt P54762)
Outline: as §1

[10] = biological target: EPHB3 (Homo sapiens (Human), UniProt P54753)
Outline: as §1

[11] = biological target: ERK2 (Homo sapiens (Human), UniProt P28482)
Outline: as §1

[12] = biological target: ERK8 (Homo sapiens (Human), UniProt Q8TD08)
Outline: as §1

[13] = biological target: FAK (Homo sapiens (Human), UniProt Q05397)
Outline: as §1

[14] = biological target: ICK (Homo sapiens (Human), UniProt Q9UPZ9)
Outline: as §1

[15] = biological target: IKK-beta (Homo sapiens (Human), UniProt O14920)
Outline: as §1

[16] = biological target: INSRR (Homo sapiens (Human), UniProt P14616)
Outline: as §1

[17] = biological target: IRAK1 (Homo sapiens (Human), UniProt P51617)
Outline: as §1

[18] = biological target: JAK2(JH1domain-catalytic) (Homo sapiens (Human), UniProt O60674)
Outline: as §1

[19] = biological target: JNK2 (Homo sapiens (Human), UniProt P45984)
Sequence of JNK2 (P45984 whole entry): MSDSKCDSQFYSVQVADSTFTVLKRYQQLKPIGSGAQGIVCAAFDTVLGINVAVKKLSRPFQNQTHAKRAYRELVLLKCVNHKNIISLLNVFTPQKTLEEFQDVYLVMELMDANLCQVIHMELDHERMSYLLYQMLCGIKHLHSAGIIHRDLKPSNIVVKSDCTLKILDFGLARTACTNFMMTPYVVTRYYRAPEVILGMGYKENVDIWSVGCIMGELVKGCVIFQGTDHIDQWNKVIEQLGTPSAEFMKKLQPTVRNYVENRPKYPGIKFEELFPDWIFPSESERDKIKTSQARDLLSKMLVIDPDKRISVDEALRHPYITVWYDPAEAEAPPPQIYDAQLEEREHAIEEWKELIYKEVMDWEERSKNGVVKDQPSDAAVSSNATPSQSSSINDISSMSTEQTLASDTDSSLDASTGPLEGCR
Outline: as §1

[20] = biological target: KIT(V559D) (Homo sapiens (Human), UniProt P10721, V559D)
Sequence of KIT(V559D) (P10721 26-976 V559D): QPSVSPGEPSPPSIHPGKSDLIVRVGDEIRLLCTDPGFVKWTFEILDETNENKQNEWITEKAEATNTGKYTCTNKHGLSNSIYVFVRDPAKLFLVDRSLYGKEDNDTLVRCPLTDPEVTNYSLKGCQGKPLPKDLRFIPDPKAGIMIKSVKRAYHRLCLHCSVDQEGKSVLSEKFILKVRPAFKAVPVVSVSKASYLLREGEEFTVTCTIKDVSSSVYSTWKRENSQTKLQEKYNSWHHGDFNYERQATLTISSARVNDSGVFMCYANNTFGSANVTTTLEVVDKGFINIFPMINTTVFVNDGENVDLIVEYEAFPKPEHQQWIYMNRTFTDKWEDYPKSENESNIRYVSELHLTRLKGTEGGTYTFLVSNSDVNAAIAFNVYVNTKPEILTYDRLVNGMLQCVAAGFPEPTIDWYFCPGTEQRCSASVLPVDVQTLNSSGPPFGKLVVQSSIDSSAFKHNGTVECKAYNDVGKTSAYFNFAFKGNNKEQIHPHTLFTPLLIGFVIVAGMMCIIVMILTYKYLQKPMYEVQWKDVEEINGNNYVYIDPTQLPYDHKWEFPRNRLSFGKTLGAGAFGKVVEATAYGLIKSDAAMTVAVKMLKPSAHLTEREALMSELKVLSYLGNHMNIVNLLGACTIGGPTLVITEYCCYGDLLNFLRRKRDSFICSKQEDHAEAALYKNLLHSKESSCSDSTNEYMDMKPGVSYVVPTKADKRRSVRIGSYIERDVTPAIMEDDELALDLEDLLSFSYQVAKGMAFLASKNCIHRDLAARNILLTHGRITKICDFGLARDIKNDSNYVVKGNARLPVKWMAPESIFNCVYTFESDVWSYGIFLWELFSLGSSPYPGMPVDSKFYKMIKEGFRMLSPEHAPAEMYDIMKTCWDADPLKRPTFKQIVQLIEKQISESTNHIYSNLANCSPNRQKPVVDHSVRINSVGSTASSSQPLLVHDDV
Outline: as §1

[21] = biological target: LATS1 (Homo sapiens (Human), UniProt O95835)
Outline: as §1

[22] = biological target: MAP3K2 (Homo sapiens (Human), UniProt Q9Y2U5)
Outline: as §1

[23] = biological target: MAST1 (Homo sapiens (Human), UniProt Q9Y2H9)
Outline: as §1

[24] = biological target: MRCKA (Homo sapiens (Human), UniProt Q5VT25)
Outline: as §1

[25] = biological target: MTOR (Homo sapiens (Human), UniProt P42345)
Outline: as §1

[26] = biological target: NEK5 (Homo sapiens (Human), UniProt Q6P3R8)
Outline: as §1

[27] = biological target: NEK6 (Homo sapiens (Human), UniProt Q9HC98)
Outline: as §1

[28] = biological target: PDGFRB (Homo sapiens (Human), UniProt P09619)
Outline: as §1

[29] = biological target: PIK3CD (Homo sapiens (Human), UniProt O00329)
Outline: as §1

[30] = biological target: PLK2 (Homo sapiens (Human), UniProt Q9NYY3)
Outline: as §1

[31] = biological target: PRKCI (Homo sapiens (Human), UniProt P41743)
Outline: as §1

[32] = biological target: PRKD1 (Homo sapiens (Human), UniProt Q15139)
Sequence of PRKD1 (Q15139 whole entry): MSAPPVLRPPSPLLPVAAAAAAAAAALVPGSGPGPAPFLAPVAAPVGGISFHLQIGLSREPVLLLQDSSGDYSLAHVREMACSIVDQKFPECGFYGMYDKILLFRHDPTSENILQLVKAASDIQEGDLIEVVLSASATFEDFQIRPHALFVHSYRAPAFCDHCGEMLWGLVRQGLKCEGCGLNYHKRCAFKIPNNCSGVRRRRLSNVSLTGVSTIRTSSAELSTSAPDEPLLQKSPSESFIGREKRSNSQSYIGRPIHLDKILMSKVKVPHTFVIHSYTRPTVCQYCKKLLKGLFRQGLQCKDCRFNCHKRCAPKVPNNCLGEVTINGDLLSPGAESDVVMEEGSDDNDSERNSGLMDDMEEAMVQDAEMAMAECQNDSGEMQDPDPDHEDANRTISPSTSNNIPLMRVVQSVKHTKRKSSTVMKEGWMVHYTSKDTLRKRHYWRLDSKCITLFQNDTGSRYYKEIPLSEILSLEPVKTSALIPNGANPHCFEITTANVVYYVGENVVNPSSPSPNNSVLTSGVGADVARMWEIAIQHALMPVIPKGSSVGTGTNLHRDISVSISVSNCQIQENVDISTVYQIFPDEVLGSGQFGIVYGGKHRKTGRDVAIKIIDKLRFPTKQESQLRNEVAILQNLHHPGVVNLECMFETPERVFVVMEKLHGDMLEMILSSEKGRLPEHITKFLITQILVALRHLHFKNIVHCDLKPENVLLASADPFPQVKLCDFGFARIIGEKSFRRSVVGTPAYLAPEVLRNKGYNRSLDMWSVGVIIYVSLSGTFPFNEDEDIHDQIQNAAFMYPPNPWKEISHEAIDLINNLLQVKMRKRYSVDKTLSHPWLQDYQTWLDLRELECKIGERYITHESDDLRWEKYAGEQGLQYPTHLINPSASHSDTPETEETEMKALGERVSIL
Outline: as §1

[33] = biological target: RET (Homo sapiens (Human), UniProt P07949)
Outline: as §1

[34] = biological target: TEC (Homo sapiens (Human), UniProt P42680)
Outline: as §1

[35] = biological target: TIE2 (Homo sapiens (Human), UniProt Q02763)
Outline: as §1

[36] = biological target: TNNI3K (Homo sapiens (Human), UniProt Q59H18)
Outline: as §1

[37] = biological target: TRPM6 (Homo sapiens (Human), UniProt Q9BX84)
Sequence of TRPM6 (Q9BX84 whole entry): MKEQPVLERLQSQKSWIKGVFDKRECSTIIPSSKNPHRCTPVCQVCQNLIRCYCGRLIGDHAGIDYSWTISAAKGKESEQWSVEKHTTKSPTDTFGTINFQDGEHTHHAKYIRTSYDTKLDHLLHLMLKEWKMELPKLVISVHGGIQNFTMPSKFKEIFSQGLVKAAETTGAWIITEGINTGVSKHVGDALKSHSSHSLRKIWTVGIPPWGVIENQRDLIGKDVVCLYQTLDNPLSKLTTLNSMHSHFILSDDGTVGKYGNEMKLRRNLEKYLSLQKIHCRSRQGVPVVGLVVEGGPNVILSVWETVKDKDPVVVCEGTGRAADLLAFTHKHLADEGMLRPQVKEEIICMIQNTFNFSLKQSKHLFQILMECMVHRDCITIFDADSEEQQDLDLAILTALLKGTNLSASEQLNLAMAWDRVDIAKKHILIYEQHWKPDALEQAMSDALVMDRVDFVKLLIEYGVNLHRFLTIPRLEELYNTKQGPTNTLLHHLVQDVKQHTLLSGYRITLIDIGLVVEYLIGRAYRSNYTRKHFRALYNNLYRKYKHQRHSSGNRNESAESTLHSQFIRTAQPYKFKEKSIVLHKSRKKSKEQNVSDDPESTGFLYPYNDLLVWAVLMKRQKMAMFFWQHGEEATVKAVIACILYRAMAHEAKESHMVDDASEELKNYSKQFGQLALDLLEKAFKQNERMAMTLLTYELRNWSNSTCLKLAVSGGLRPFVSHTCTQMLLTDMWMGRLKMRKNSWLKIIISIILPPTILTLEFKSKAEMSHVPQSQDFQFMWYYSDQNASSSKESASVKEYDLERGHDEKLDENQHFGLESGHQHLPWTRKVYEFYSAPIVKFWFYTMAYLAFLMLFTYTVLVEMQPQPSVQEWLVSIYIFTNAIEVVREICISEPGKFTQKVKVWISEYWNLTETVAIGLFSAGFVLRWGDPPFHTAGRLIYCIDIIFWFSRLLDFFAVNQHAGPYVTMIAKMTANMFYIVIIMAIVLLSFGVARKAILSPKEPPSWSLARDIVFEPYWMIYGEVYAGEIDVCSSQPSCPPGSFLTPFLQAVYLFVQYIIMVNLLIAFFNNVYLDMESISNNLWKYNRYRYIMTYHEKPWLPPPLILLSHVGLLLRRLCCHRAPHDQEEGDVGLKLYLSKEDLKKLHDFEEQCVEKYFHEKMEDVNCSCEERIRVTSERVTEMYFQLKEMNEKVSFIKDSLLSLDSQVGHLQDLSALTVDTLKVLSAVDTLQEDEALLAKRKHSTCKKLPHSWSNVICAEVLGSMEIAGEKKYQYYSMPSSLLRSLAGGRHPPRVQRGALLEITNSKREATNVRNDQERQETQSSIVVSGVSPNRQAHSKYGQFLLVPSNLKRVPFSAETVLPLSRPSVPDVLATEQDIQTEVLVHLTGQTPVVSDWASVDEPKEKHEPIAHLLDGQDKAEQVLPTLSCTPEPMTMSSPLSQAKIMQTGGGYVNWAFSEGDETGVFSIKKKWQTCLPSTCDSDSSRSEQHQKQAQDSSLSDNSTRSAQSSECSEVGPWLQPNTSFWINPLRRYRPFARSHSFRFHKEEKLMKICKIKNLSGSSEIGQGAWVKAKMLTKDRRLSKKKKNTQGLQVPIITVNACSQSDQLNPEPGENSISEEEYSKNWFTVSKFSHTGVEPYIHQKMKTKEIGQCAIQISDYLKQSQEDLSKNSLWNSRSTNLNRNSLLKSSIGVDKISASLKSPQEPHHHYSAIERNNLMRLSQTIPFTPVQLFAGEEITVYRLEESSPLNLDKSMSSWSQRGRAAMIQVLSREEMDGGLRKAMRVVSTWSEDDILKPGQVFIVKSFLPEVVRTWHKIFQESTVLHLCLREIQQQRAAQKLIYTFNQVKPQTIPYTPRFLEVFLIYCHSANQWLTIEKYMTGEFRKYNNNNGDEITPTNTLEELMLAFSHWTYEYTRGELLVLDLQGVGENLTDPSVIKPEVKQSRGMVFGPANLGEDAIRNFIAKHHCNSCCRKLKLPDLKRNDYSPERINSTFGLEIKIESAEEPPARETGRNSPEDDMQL
Outline: as §1

[38] = biological target: TSSK1B (Homo sapiens (Human), UniProt Q9BXA7)
Outline: as §1

[39] = biological target: WEE2 (Homo sapiens (Human), UniProt P0C1S8)
Outline: as §1

[40] = biological target: YANK2 (Homo sapiens (Human), UniProt Q9NY57)
Outline: as §1

Sequence of AURKB (Q96GD4 whole entry): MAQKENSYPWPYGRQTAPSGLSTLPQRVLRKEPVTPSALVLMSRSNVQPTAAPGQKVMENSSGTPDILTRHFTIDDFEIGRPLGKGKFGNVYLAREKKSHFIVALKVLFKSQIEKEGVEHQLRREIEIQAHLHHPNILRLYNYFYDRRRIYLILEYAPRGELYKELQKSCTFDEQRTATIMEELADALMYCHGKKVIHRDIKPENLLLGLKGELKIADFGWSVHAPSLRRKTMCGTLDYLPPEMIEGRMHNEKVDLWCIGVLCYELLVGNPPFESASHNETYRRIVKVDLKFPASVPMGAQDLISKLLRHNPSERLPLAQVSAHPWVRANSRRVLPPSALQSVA

SMILES	remaining binding at 1 µM [1] [%]	remaining binding at 1 µM [2] [%]	remaining binding at 1 µM [3] [%]	remaining binding at 1 µM [4] [%]	remaining binding at 1 µM [5] [%]	remaining binding at 1 µM [6] [%]	remaining binding at 1 µM [7] [%]	remaining binding at 1 µM [8] [%]	remaining binding at 1 µM [9] [%]	remaining binding at 1 µM [10] [%]	remaining binding at 1 µM [11] [%]	remaining binding at 1 µM [12] [%]	remaining binding at 1 µM [13] [%]	remaining binding at 1 µM [14] [%]	remaining binding at 1 µM [15] [%]	remaining binding at 1 µM [16] [%]	remaining binding at 1 µM [17] [%]	remaining binding at 1 µM [18] [%]	remaining binding at 1 µM [19] [%]	remaining binding at 1 µM [20] [%]	further results
CCNc1cc(Nc2ccc(C(=O)N3CCC(N4CCOCC4)CC3)cc2OC)nc2[nH]cc(C#N)c12 [Example 18, 4-(ethylamino)-6-((2-methoxy-4-(4-morpholinopiperidine-1-carbonyl)phenyl)amino)-1H-pyrrolo[2,3-b]pyridine-3-carbonitrile]	95	73	62	72	93	8.2	14	81	95	93	94	99	78	84	77	24	79	70	0.1	33	remaining binding at 1 µM [21]: 97%; remaining binding at 1 µM [22]: 79%; remaining binding at 1 µM [23]: 93%; remaining binding at 1 µM [24]: 100%; remaining binding at 1 µM [25]: 86%; remaining binding at 1 µM [26]: 92%; remaining binding at 1 µM [27]: 97%; remaining binding at 1 µM [28]: 76%; remaining binding at 1 µM [29]: 100%; remaining binding at 1 µM [30]: 81%; remaining binding at 1 µM [31]: 76%; remaining binding at 1 µM [32]: 14%; remaining binding at 1 µM [33]: 100%; remaining binding at 1 µM [34]: 100%; remaining binding at 1 µM [35]: 82%; remaining binding at 1 µM [36]: 91%; remaining binding at 1 µM [37]: 87%; remaining binding at 1 µM [38]: 34%; remaining binding at 1 µM [39]: 91%; remaining binding at 1 µM [40]: 100%
CCNc1cc(Nc2ccc(C(=O)N3CCC(N4CCOCC4)CC3)cc2OC)nc2[nH]cc(C(F)(F)F)c12 [Example 57, (4-((4-(ethylamino)-3-(trifluoromethyl)-1H-pyrrolo[2,3-b]pyridin-6-yl)amino)-3-methoxyphenyl) (4-morpholinopiperidin-1-yl)methanone]	86	81	78	72	76	51	86	100	94	85	74	93	77	100	100	60	100	100	52	77	remaining binding at 1 µM [21]: 94%; remaining binding at 1 µM [22]: 100%; remaining binding at 1 µM [23]: 66%; remaining binding at 1 µM [24]: 95%; remaining binding at 1 µM [25]: 88%; remaining binding at 1 µM [26]: 91%; remaining binding at 1 µM [27]: 84%; remaining binding at 1 µM [28]: 92%; remaining binding at 1 µM [29]: 100%; remaining binding at 1 µM [30]: 90%; remaining binding at 1 µM [31]: 63%; remaining binding at 1 µM [32]: 73%; remaining binding at 1 µM [33]: 100%; remaining binding at 1 µM [34]: 92%; remaining binding at 1 µM [35]: 89%; remaining binding at 1 µM [36]: 100%; remaining binding at 1 µM [37]: 97%; remaining binding at 1 µM [38]: 53%; remaining binding at 1 µM [39]: 96%; remaining binding at 1 µM [40]: 94%
